Reference: the kinase profiling compilation of Christmann-Franck et al. (2016)

Experiments:
Test in all cases: radiometric filter-binding kinase assay, Kinase HotSpot
Conditions in all cases: compound 0.5 µM; ATP 10 µM
LCK (human) = LCK (human) (UniProt P06239)
CAMKK1 (human) = CAMKK1 (human) (UniProt Q8N5S9)
SRMS (human) = SRMS (human) (UniProt Q9H3Y6)
WNK3 (human) = WNK3 (human) (UniProt Q9BYP7)
CDK1 CCNB1 (human) = CDK1 CCNB1 (human) (UniProt P06493+P14635)
MINK1 (human) = MINK1 (human) (UniProt Q8N4C8)
STK25 (human) = STK25 (human) (UniProt O00506)
PRKD3 (human) = PRKD3 (human) (UniProt O94806)
HIPK3 (human) = HIPK3 (human) (UniProt Q9H422)
ADRBK1 (human) = ADRBK1 (human) (UniProt P25098)
CAMK1D (human) = CAMK1D (human) (UniProt Q8IU85)
EPHA7 (human) = EPHA7 (human) (UniProt Q15375)
DYRK1A (human) = DYRK1A (human) (UniProt Q13627)
CHUK (human) = CHUK (human) (UniProt O15111)
MAP4K4 (human) = MAP4K4 (human) (UniProt O95819)
PRKD1 (human) = PRKD1 (human) (UniProt Q15139)
Sequence of PRKD1 (human) (Q15139 whole entry, looked up): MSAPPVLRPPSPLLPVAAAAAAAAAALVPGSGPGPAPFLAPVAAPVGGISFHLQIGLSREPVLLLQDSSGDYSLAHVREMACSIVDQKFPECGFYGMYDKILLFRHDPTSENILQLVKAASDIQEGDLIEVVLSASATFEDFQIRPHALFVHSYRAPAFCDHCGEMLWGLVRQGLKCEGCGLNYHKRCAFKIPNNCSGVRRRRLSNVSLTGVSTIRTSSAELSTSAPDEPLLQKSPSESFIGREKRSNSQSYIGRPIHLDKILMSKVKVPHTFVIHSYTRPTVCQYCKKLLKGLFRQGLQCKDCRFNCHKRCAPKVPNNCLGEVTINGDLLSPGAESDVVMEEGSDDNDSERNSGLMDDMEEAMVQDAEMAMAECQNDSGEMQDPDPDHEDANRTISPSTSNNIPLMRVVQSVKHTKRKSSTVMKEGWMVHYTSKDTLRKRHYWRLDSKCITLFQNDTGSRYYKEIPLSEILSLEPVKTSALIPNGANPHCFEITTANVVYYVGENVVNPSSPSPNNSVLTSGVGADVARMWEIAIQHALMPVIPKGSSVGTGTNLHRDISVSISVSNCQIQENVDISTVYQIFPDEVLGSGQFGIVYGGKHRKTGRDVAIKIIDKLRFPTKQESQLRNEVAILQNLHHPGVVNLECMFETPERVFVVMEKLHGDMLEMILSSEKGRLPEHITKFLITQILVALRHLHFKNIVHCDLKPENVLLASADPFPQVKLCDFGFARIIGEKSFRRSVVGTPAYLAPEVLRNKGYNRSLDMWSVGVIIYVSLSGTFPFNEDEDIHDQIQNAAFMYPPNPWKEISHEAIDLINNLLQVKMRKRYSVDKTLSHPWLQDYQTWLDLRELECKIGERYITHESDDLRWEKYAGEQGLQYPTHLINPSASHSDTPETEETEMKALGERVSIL

PDGFRA (human) = PDGFRA (human) (UniProt P16234)
CAMK2B (human) = CAMK2B (human) (UniProt Q13554)
LIMK1 (human) = LIMK1 (human) (UniProt P53667)
Sequence of LIMK1 (human) (P53667 whole entry, looked up): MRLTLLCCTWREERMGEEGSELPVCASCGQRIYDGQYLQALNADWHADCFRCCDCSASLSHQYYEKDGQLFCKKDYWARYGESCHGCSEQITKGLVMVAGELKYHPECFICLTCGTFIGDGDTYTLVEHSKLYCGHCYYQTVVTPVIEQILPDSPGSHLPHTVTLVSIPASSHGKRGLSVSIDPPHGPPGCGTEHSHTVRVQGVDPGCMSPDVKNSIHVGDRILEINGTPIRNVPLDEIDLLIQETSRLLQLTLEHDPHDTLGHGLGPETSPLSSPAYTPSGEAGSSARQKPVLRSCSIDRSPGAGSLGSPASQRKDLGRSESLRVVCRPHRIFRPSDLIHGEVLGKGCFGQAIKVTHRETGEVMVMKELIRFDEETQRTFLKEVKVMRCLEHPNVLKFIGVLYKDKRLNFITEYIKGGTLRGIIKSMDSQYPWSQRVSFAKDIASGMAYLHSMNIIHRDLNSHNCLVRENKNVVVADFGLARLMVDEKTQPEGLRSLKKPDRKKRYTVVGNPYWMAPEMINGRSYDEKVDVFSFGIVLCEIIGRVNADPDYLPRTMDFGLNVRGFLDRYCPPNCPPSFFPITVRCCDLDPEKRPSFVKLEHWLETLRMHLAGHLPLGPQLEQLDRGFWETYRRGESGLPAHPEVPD

NTRK1 (human) = NTRK1 (human) (UniProt P04629)
Sequence of NTRK1 (human) (P04629 whole entry, looked up): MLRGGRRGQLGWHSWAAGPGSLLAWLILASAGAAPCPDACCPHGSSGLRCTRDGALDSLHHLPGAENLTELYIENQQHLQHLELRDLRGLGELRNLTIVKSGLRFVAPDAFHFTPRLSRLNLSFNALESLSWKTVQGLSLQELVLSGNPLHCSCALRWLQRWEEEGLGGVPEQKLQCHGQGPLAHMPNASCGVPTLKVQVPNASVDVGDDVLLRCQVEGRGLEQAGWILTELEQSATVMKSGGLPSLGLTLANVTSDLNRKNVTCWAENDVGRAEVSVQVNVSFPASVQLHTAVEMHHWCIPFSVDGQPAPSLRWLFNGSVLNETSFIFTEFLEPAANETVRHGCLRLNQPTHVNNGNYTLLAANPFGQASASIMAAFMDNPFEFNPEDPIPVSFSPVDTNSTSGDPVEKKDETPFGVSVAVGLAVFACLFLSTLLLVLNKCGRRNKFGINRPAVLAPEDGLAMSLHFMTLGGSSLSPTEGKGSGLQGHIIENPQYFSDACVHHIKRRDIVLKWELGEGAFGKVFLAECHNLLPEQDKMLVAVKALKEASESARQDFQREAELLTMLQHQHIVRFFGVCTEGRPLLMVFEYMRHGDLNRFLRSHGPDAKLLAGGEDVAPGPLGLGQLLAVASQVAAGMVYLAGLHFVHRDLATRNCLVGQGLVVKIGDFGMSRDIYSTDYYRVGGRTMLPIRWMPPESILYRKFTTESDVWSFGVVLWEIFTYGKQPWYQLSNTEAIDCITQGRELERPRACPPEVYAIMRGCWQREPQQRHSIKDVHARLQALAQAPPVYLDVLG

GRK6 (human) = GRK6 (human) (UniProt P43250)
Sequence of GRK6 (human) (P43250 whole entry, looked up): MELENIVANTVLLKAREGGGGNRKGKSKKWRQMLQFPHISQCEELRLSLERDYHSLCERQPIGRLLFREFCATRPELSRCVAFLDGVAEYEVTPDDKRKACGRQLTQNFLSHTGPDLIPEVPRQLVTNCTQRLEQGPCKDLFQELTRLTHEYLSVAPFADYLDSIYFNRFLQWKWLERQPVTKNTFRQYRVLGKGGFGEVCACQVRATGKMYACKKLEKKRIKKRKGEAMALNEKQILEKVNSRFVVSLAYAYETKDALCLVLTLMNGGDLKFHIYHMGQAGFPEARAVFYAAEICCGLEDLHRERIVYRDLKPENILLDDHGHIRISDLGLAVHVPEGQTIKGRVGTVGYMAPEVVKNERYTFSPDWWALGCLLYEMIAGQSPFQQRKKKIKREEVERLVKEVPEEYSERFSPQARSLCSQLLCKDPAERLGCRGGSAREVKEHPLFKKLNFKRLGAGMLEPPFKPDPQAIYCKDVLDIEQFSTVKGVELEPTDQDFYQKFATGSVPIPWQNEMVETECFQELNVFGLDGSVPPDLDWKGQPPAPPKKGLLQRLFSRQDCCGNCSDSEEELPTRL

PRKCZ (human) = PRKCZ (human) (UniProt Q05513)
Sequence of PRKCZ (human) (Q05513 whole entry, looked up): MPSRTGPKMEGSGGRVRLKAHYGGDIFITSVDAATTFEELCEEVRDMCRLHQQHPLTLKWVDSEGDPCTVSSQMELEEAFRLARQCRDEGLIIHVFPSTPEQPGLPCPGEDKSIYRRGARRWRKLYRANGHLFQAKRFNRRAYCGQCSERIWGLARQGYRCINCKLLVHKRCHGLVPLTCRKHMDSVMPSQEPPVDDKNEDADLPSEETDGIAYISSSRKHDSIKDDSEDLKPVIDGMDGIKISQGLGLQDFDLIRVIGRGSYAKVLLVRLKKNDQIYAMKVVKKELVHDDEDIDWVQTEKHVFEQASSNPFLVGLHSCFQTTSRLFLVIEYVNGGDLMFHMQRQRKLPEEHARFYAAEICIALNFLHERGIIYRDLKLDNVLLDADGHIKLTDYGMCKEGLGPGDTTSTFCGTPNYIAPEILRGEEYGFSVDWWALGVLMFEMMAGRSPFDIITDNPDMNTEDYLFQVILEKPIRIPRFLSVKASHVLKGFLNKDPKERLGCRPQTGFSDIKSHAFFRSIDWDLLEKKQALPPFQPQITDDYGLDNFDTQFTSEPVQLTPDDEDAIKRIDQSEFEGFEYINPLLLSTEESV

TGFBR1 (human) = TGFBR1 (human) (UniProt P36897)
GRK5 (human) = GRK5 (human) (UniProt P34947)
SRPK1 (human) = SRPK1 (human) (UniProt Q96SB4)
CSNK1G1 (human) = CSNK1G1 (human) (UniProt Q9HCP0)
PRKCG (human) = PRKCG (human) (UniProt P05129)
CDK3 CCNE1 (human) = CDK3 CCNE1 (human) (UniProt Q00526+P24864)
CDK7 CCNH MNAT1 (human) = CDK7 CCNH MNAT1 (human) (UniProt P50613+P51948+P51946)
NEK4 (human) = NEK4 (human) (UniProt P51957)
MELK (human) = MELK (human) (UniProt Q14680)
Sequence of MELK (human) (Q14680 whole entry, looked up): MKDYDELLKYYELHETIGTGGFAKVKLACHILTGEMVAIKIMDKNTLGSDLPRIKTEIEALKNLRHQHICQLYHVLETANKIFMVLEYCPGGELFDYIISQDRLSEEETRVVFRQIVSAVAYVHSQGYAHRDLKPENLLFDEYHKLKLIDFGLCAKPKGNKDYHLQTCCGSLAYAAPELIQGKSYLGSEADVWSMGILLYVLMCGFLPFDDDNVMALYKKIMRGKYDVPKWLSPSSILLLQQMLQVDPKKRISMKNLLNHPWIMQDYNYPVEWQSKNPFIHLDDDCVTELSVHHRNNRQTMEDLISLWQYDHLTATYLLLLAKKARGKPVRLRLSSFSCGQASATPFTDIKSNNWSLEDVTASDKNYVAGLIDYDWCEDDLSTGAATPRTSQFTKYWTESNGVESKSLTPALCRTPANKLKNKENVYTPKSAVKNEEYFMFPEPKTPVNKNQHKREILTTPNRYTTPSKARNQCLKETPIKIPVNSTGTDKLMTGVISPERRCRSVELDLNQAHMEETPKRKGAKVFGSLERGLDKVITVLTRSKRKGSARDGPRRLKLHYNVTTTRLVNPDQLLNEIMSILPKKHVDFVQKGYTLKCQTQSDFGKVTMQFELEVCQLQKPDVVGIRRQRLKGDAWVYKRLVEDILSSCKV

ALK (human) = ALK (human) (UniProt Q9UM73)
PDGFRB (human) = PDGFRB (human) (UniProt P09619)
NEK2 (human) = NEK2 (human) (UniProt P51955)
PRKCA (human) = PRKCA (human) (UniProt P17252)
ACVR1 (human) = ACVR1 (human) (UniProt Q04771)
Sequence of ACVR1 (human) (Q04771 whole entry, looked up): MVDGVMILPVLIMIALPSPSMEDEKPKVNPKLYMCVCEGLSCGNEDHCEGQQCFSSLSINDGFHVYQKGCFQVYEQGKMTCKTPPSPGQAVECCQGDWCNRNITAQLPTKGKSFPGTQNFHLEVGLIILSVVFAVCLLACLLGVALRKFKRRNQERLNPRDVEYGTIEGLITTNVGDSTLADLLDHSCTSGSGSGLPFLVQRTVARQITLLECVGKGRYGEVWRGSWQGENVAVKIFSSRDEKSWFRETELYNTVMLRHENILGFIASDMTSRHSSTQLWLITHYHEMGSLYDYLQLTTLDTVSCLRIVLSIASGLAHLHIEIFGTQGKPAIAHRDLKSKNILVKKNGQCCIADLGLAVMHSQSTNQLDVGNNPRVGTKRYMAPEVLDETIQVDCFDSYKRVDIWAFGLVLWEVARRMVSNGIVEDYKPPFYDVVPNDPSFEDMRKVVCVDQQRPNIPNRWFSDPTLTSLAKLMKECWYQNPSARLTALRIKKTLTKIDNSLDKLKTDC

MKNK2 (human) = MKNK2 (human) (UniProt Q9HBH9)
CAMK1 (human) = CAMK1 (human) (UniProt Q14012)
PRKCI (human) = PRKCI (human) (UniProt P41743)
AKT3 (human) = AKT3 (human) (UniProt Q9Y243)
CDK2 CCNE1 (human) = CDK2 CCNE1 (human) (UniProt P24941+P24864)

## CC#CC(=O)Nc1cc2c(Nc3ccc(F)c(Cl)c3)ncnc2cn1
LCK (human)
  residual activity: 92.2%
CAMKK1 (human)
  residual activity: 124%
SRMS (human)
  residual activity: 96.1%
WNK3 (human)
  residual activity: 95.1%
CDK1 CCNB1 (human)
  residual activity: 99.5%
MINK1 (human)
  residual activity: 91.9%
STK25 (human)
  residual activity: 97.1%
PRKD3 (human)
  residual activity: 103%
HIPK3 (human)
  residual activity: 92.9%
ADRBK1 (human)
  residual activity: 98.3%
CAMK1D (human)
  residual activity: 107%
EPHA7 (human)
  residual activity: 91.3%
DYRK1A (human)
  residual activity: 96.4%
CHUK (human)
  residual activity: 92.1%
MAP4K4 (human)
  residual activity: 110%
PRKD1 (human)
  residual activity: 98.7%
PDGFRA (human)
  residual activity: 94.9%
CAMK2B (human)
  residual activity: 99.6%
LIMK1 (human)
  residual activity: 84.2%
NTRK1 (human)
  residual activity: 98.5%
GRK6 (human)
  residual activity: 104%
PRKCZ (human)
  residual activity: 114%
TGFBR1 (human)
  residual activity: 98.7%
GRK5 (human)
  residual activity: 105%
SRPK1 (human)
  residual activity: 94.8%
CSNK1G1 (human)
  residual activity: 95.5%
PRKCG (human)
  residual activity: 97.2%
CDK3 CCNE1 (human)
  residual activity: 96.8%
CDK7 CCNH MNAT1 (human)
  residual activity: 101%
NEK4 (human)
  residual activity: 85.8%
MELK (human)
  residual activity: 101%
ALK (human)
  residual activity: 103%
PDGFRB (human)
  residual activity: 103%
NEK2 (human)
  residual activity: 103%
PRKCA (human)
  residual activity: 101%
ACVR1 (human)
  residual activity: 105%
MKNK2 (human)
  residual activity: 66%
CAMK1 (human)
  residual activity: 97.9%
PRKCI (human)
  residual activity: 96.6%
AKT3 (human)
  residual activity: 97.8%
CDK2 CCNE1 (human)
  residual activity: 98.1%

## O=S(=O)(c1cccc2cnccc12)N1CCCNCC1
LCK (human)
  residual activity: 101%
CAMKK1 (human)
  residual activity: 108%
SRMS (human)
  residual activity: 97.5%
WNK3 (human)
  residual activity: 98.1%
CDK1 CCNB1 (human)
  residual activity: 92.7%
MINK1 (human)
  residual activity: 96.6%
STK25 (human)
  residual activity: 84.8%
PRKD3 (human)
  residual activity: 65.8%
HIPK3 (human)
  residual activity: 107%
ADRBK1 (human)
  residual activity: 105%
CAMK1D (human)
  residual activity: 91.5%
EPHA7 (human)
  residual activity: 97.3%
DYRK1A (human)
  residual activity: 99.4%
MAP4K4 (human)
  residual activity: 44.1%
PRKD1 (human)
  residual activity: 65.1%
CAMK2B (human)
  residual activity: 93.2%
LIMK1 (human)
  residual activity: 100%
NTRK1 (human)
  residual activity: 89.6%
GRK6 (human)
  residual activity: 95.4%
PRKCZ (human)
  residual activity: 94.7%
TGFBR1 (human)
  residual activity: 98.4%
GRK5 (human)
  residual activity: 109%
SRPK1 (human)
  residual activity: 92.6%
CSNK1G1 (human)
  residual activity: 89.6%
PRKCG (human)
  residual activity: 110%
CDK3 CCNE1 (human)
  residual activity: 76.6%
CDK7 CCNH MNAT1 (human)
  residual activity: 95.5%
NEK4 (human)
  residual activity: 90.7%
MELK (human)
  residual activity: 78.6%
ALK (human)
  residual activity: 119%
PDGFRB (human)
  residual activity: 102%
NEK2 (human)
  residual activity: 92.3%
PRKCA (human)
  residual activity: 94.8%
ACVR1 (human)
  residual activity: 96.5%
MKNK2 (human)
  residual activity: 72%
CAMK1 (human)
  residual activity: 99.4%
PRKCI (human)
  residual activity: 87.2%
AKT3 (human)
  residual activity: 94.1%

## CCC(=O)Nc1ccc2ncnc(Nc3cccc(Br)c3)c2c1
LCK (human)
  residual activity: 93.1%
CAMKK1 (human)
  residual activity: 99.8%
SRMS (human)
  residual activity: 99.4%
WNK3 (human)
  residual activity: 99.3%
CDK1 CCNB1 (human)
  residual activity: 89.5%
MINK1 (human)
  residual activity: 95.8%
STK25 (human)
  residual activity: 102%
PRKD3 (human)
  residual activity: 85.9%
HIPK3 (human)
  residual activity: 92.1%
ADRBK1 (human)
  residual activity: 112%
CAMK1D (human)
  residual activity: 104%
EPHA7 (human)
  residual activity: 102%
DYRK1A (human)
  residual activity: 89.2%
CHUK (human)
  residual activity: 99.3%
MAP4K4 (human)
  residual activity: 91.1%
PRKD1 (human)
  residual activity: 97.9%
PDGFRA (human)
  residual activity: 107%
CAMK2B (human)
  residual activity: 105%
LIMK1 (human)
  residual activity: 88.7%
NTRK1 (human)
  residual activity: 95.8%
GRK6 (human)
  residual activity: 97.6%
PRKCZ (human)
  residual activity: 95.7%
TGFBR1 (human)
  residual activity: 101%
GRK5 (human)
  residual activity: 107%
SRPK1 (human)
  residual activity: 97%
CSNK1G1 (human)
  residual activity: 98.6%
PRKCG (human)
  residual activity: 102%
CDK3 CCNE1 (human)
  residual activity: 86.5%
CDK7 CCNH MNAT1 (human)
  residual activity: 102%
NEK4 (human)
  residual activity: 94.7%
MELK (human)
  residual activity: 93.4%
ALK (human)
  residual activity: 83.1%
PDGFRB (human)
  residual activity: 98%
NEK2 (human)
  residual activity: 87.5%
PRKCA (human)
  residual activity: 96.5%
ACVR1 (human)
  residual activity: 93.7%
MKNK2 (human)
  residual activity: 55.6%
CAMK1 (human)
  residual activity: 88.9%
PRKCI (human)
  residual activity: 106%
AKT3 (human)
  residual activity: 94.4%
CDK2 CCNE1 (human)
  residual activity: 84.9%
